Like-named read-outs stand apart in the source and are kept apart here.
Key:
Mahlavu cells = assay: MTT viability assay, Mahlavu; format: cell-based; settings: 72 h (Figure 6B)
Protocol: (§1) Cells were seeded into a 96-well plate (1500–2000 cells/well) overnight and then treated with curcumin and the formulated curcumin respectively for 0, 24, 48, 72, 96 and 120 h. After treatment, […] 3-(4,5-cimethylthiazol-2-yl)-2,5-diphenyl tetrazolium bromide (MTT) was added to each well and cultured for 2 h at 37 °C. After incubation, the media were removed from the wells. The formazan crystals formed were then solubilized in DMSO at room temperature for 10 minutes, and then the absorbance was measured in a multimode microplate reader at 570 nm.

LC3-II = assay: Western blot of LC3-II, Hep3B; format: cell-based, human; settings: 10 μM sorafenib, 30 μM conventional curcumin, 48 h
Protocol: (§2) The cells were incubated with various treatment (conventional and formulated curcumin or combination of sorafenib and conventional and formulated curcumin), and then collected for western blot. Aliquots of cell lysates containing 20–50 μg of protein were separated by SDS-polyacrylamide gel electrophoresis (SDS-PAGE), transferred onto a polyvinylidene difluoride (PVDF) membrane and detected using specific primary and secondary antibodies. The protein bands were visualized by an enhanced chemiluminescence (ECL) detection kit (Immobilon^TM western, Millipore). The membranes were reprobed for β-actin as a loading control. All western blots were carried out at least three times for each experiment. The data were normalized to β-actin. The following primary antibodies were used: anti-extracellular regulated protein kinases (ERK), anti-caspase-3, anti-poly (ADP-ribose) polymerase (PARP) (all from Cell Signaling Technology) and anti-aurora kinase A (AURKA) (BD Biosciences). All antibodies were used at a 1:1000 dilution.
(§3) formulated curcumin on HCC cell lines. (A) Huh7 cells were treated with various concentrations of
(§4) Cell viability was determined
(§5) cells were examined by flow cytometry.
(§6) were quantified using WinMDI 2.8 software.
(§7) compared to the control group.
(§8) μM of conventional curcumin for 48 h.
(§9) Quantification of cleavage-caspase-3
(§10) are representative of three independent experiments. […]

Aurora-A = assay: Western blot of Aurora-A, Huh7; format: cell-based, human; settings: Huh7, 0–60 μM, 48 h
Protocol: as §2

caspase-3 [1] = assay: Western blot of cleaved caspase-3, Huh7; format: cell-based, human; settings: dose-dependent
Protocol: as §2

[2] = Dissolution test, USP 41 basket method, 1% SDS medium; format: physicochemical; settings: 37 °C
Protocol: A dissolution test was conducted by the US Pharmacopeia 41 basket method (apparatus 1) using a dissolution tester (708-DS Dissolution apparatus, Agilent, USA). The samples of 89 mg conventional curcumin (equivalent to 72 mg curcumin) and 2180 mg formulated curcumin (equivalent to 72 mg curcumin) were placed into 900 mL of dissolution medium containing 1% sodium dodecyl sulfate (SDS) at 37 °C ± 0.5 °C, under a stirring speed of 100 ± 2 rpm. A 5 mL sample was withdrawn at each time interval (5, 10, 15, 20, 30, 45, and 60 minutes) and was mixed and filtered through a 0.45-µm pore membrane. Then, 2 mL of filtrate was diluted with mobile phase so that the total volume became 10 mL and subjected to HPLC analysis (Agilent 1260, USA). The HPLC program consisted of a mobile phase of tetrahydrofuran: 0.1% citric acid solution (4:6). The column used was 4.6 mm × 20 cm with 5-µm packing L1. The flow rate was 1 mL/minute, and the injection volume was 20 µL using a 420 nm wavelength detector. The percentages of curcumin dissolved from the conventional curcumin and pellets (formulated curcumin) into the medium were calculated and compared.

[3] = Pharmacokinetic study after oral gavage, curcumin in rat plasma by LC/MS/MS; format: in vivo, male Sprague Dawley (SD) rats; settings: 500 mg/kg, n = 5
Protocol: All animal treatment procedures followed the Guide for the Care and Use of Laboratory Animals (National Institutes of Health (NIH) publication, 85–23, revised 1996) as well as the Animal research: Reporting in vivo experiments (ARRIVE) guidelines, and were approved by the Animal Research Committee at National Yang-Ming University, Taipei, Taiwan, under Institutional Animal Care and Use Committees (IACUC) approval no: 990103. All surgeries and experimental procedure were carried out under anesthesia with all efforts to minimize animal suffering. Twelve male Sprague Dawley (SD) rats (270 ± 15 g body weight) were obtained from Bio-Lasco, Taipei, Taiwan. Water was provided ad libitum, regardless of administration route. All animals were acclimatized and quarantined in quarantine room of the Rosetta animal facility for about 1 week, and then transferred to feeding room. The humidity and temperature were well controlled as 30%–70% and 19–25 °C. The light and dark cycle was set as 12 h: 12 h. Food and drinking water were allowed ad libitum during housing. Rats were randomly divided into two groups treated with curcumin and formulated curcumin. […] A 300 μL blood sample was collected from the tail vein into a tube rinsed with heparin at 0, 0.25, 0.5, 1, 1.5, 2, 4, 6 h after oral administration. Plasma was obtained by centrifuging the blood sample at 4000 rpm for 10 minutes at 4 °C. The 10 μL plasma was mixed with 50 μL of the internal standard solution containing 0.1 ng/µL of agomelatine. The samples were vortexed and centrifuged at 13,000 rpm for 5 minutes. The 50 µL of supernatant was transferred to the 1.5 mL tube contained 50 µL solution of 25% acetonitrile and 0.1% acetic acid. After that, 50 μL of the solution was injected onto LC-MS system. Curcumin concentrations in the samples were determined by positive ion electrospray tandem mass spectrometry using multiple reaction monitoring (MRM). Separation of curcumin was conducted on a Cosmosil column (5C18-MS-IIPacked column, 120 Å, 5 µm, 4.6 mm I.D. x 150 mm; NACALAI TESQUE, Inc., Japan) with a mobile phase of acetonitrile-water-formic acid. […] Pharmacokinetic analysis was calculated using a non-compartmental model with the Phoenix WinNonlin® (Version 8.0) software. The area under the drug concentration-time curve (AUC) was used to measure the total amount of curcumin reaching the systemic circulation. The relative oral bioavailability (BA) of curcumin was calculated according to the following equation: […] The pharmacokinetic results were represented as the mean ± SD. Statistical analysis was performed by t test (SPSS version 10.0) to compare the differences between groups. The level of significance was set at p < 0.05.

ERK = assay: Western blot of ERK phosphorylation, Huh7; format: cell-based, human; settings: Huh7, 10–60 μM, 48 h
Protocol: as §2

caspase-3 [4] = assay: Western blot of cleaved caspase-3, Hep3B; format: cell-based, human; settings: 10 μM sorafenib, 30 μM conventional curcumin, 48 h
Protocol: as §2, §3, §4, §5, §6, §7, §8, §9, §10

Huh7 cells [5] = assay: MTT proliferation and viability assay, Huh7; format: cell-based, human; settings: for IC50: Homo sapiens; for cell viability: dose-dependent
Protocol: (§11) After incubation, the media were removed from the wells.

Huh7 cells [6] = assay: JC-1 mitochondrial membrane potential assay; format: cell-based, human; settings: Huh7, JC-1, 10, 30, and 60 µM, concentration-dependent
Protocol: We employed 5, 5’, 6, 6’-tetrachloro-l, 1’, 3, 3’-tetraethylbenzimidazolcarbocyanine iodide (JC-1), which was obtained from Cayman Chemical Co., to analyze the mitochondrial membrane potential. The cells were seeded in 96-well black plates at a density of 7000 cells/well and cultured overnight. After treatment, JC-1 staining solution was added to each well and incubated at 37 °C for 15–30 minutes in the dark. The plates were obtained by centrifuged at 400 × g at room temperature for 5 minutes, and the supernatant was discarded. Then, JC-1 assay buffer was added to each well, followed by centrifugation at 400 × g at room temperature for 5 minutes, after which the supernatant was discarded. Finally, JC-1 assay buffer was added again to each well for fluorescent analysis using a fluorescent plate reader.

PLC5 cells = assay: MTT viability assay, PLC5; format: cell-based; settings: 72 h (Figure 6C)
Protocol: as §1

Huh7 cells [7] = assay: Annexin V and PI double staining by flow cytometry; format: cell-based, human; settings: Huh7, 10–60 μM, 24 h, dose-dependent
Protocol: The Huh7 were incubated with various concentrations of conventional and formulated curcumin for 24 h. Annexin V/PI staining was performed to quantify cell apoptosis using an Annexin V-fluorescein isothiocyanate (FITC) Apoptosis Detection Kit (BioVision, Inc., Milpitas, CA, USA) according to the manufacturer’s protocol. Annexin V-FITC was then added followed by incubation for 15 minutes in the dark in a 100 µL cell suspension. PI was then spiked into 400 µL Annexin V binding buffer and added immediately to the cell suspension, and subsequently analyzed on a FACScan flow cytometer (BD Biosciences, USA).

[8] = rat plasma, oral, cited from earlier work
Hep3B cells [9] = assay: Cell cycle analysis (PI, flow cytometry), sub-G1 population; format: cell-based, human; settings: 48 h, 30 μM conventional curcumin, 10 μM sorafenib
Protocol: After treatment, the cells were collected by trypsinization and fixed in precooled 70% ethanol overnight. The cells were then incubated with PI in the presence of RNase A. The DNA content was analyzed by a FACSCalibur, and the data were analyzed by Flowjo software. The percentage of cells in the sub-G1 was used to indicate the apoptosis rate.
as §3, §4, §5, §6, §7, §8, §9
are representative of three independent experiments.
tetrazolium bromide; SEM, standard error of the mean.

Hep3B cells [10] = assay: MTT viability assay, Hep3B; format: cell-based, human; settings: dose-dependent
Protocol: as §11
Supplementary Figure 6. Effect of sorafenib with or without curcumin/formulated curcumin on Mahlavu and Hep3B cell viability. (A) Mahlavu and (B) Hep3B cells were treated with […]
(conventional)/formulated curcumin for 48 hours. Percentage of inhibition on Mahlavu and Hep3B cells was measured by MTT assay. Data are presented as means ± SEM. Results are representative of three independent experiments.

[11] = rats; piperine given concomitantly with curcumin; cited from earlier work
[12] = humans; 20 mg of piperine given concomitantly with 2 g of curcumin; cited from earlier work
[13] = 50 mg/kg, n = 5, ref [6] of supplement
[14] = 340 mg/kg, n = 3, ref [5] of supplement
[15] = 500 mg/kg, n = 6, ref [7] of supplement

SMILES: COc1cc(/C=C/C(=O)CC(=O)/C=C/c2ccc(O)c(OC)c2)ccc1O [conventional curcumin, curcumin]
- IC50 (Mahlavu cells): 35.4 µM
- LC3-II (LC3-II): significantly induced accumulation
- level of Aurora-A (Aurora-A): significant decrease
- caspase-3 activity (cleaved form) (caspase-3 [1]): increased
- dissolution rate ([2]; 0 minutes): 0.00%
- dissolution rate ([2]; 5 minutes): 9.80%
- dissolution rate ([2]; 10 minutes): 13.60%
- dissolution rate ([2]; 15 minutes): 14.05%
- dissolution rate ([2]; 20 minutes): 17.28%
- dissolution rate ([2]; 30 minutes): 19.41%
- dissolution rate ([2]; 45 minutes): 24.06%
- AUC0-t/Dose [3]: 0.0022 ± 0.0024
- AUC0-t ([3]; male, Sprague Dawley): 1.1 ± 1.2 ng·h/mL
- Cmax ([3]; male, Sprague Dawley): 0.704 ± 0.272 ng/mL
- Tmax ([3]; male, Sprague Dawley): 75 ± 49.8 min
- ERK phosphorylation (ERK): down-regulation
- levels of cleaved caspase-3 proteins (caspase-3 [4]): increased
- IC50 (Huh7 cells [5]; Huh-7, 24 h, 24 h (Supplementary Figure S4)): ~90 µM
- IC50 (Huh7 cells [5]; Huh-7, 48 h, 48 h (Supplementary Figure S4)): ~90 µM
- IC50 (Huh7 cells [5]; Huh-7, 72 h, 72 h (Figure 6A)): 53.3 µM
- IC50 (Huh7 cells [5]; Huh-7, 72 h, 72 h (Supplementary Figure S4)): ~60 µM
- IC50 (Huh7 cells [5]; Huh-7, 96 h, 96 h (Supplementary Figure S4)): ~45 µM
- IC50 (Huh7 cells [5]; Huh-7, 120 h, 120 h (Supplementary Figure S4)): ~30 µM
- cell viability (Huh7 cells [5]): inhibited cell viability
- mitochondrial membrane potential (ΔΨm) (Huh7 cells [6]): significantly induced mitochondrial membrane potential breakdown
- IC50 (PLC5 cells): 82.5 µM
- percentage of cells undergoing early apoptosis (annexin V+/PI–) and late apoptosis (annexin V+/PI+) (Huh7 cells [7]): increased
- AUC0-t [8, 13]: 8.76 ng·h/mL
- Cmax [8, 13]: 4.07 ± 0.56 ng/mL
- Tmax [8, 13]: 30 min
- AUC0-t [8, 14]: 80 ng·h/mL
- Cmax [8, 14]: 2.39 ± 1.66 ng/mL
- Tmax [8, 14]: 30 min
- AUC0-t [8, 15]: 60 ng·h/mL
- Cmax [8, 15]: 60 ± 10 ng/mL
- Tmax [8, 15]: 42 ± 5.4 min
- apoptosis rate (sub-G1 population) (Hep3B cells [9]): 13.5%
- cell viability (Hep3B cells [10]): inhibited cell viability

SMILES: CNC(=O)c1cc(Oc2ccc(NC(=O)Nc3ccc(Cl)c(C(F)(F)F)c3)cc2)ccn1 [sorafenib]
- levels of cleaved caspase-3 proteins (caspase-3 [4]): increased
- cell viability (Huh7 cells [5]): inhibited cell viability
- apoptosis rate (sub-G1 population) (Hep3B cells [9]): 10.9%
- cell viability (Hep3B cells [10]): inhibited cell viability

SMILES: O=C(/C=C/C=C/c1ccc2c(c1)OCO2)N1CCCCC1 [piperine]
- increase of serum curcumin [11]: 1.56 times
- increase of serum curcumin [12]: 20 times
